# In patent EP0525360B1, “Novel phenylacetamide derivatives and processes for the preparation thereof” (KOREA RESEARCH INSTITUTE OF CHEMICAL TECHNOLOGY, priority 1991, dated 1993):
# Experiments:
# mice = assay: Tail-flick test (radiant heat); type: in vivo
# Experimental: Radiant heat was applied using a beam of high-intensity light focused on a tail spot. The response time, defined as the interval between the onset of the stimulus and the tail flick, was measured electronically(to the nearest 0.1 second). The beam intensity was set at a level giving a mean control reaction time of 3.8±0.4 seconds. […] The percentage of inhibition was determined by the following equation: Inhibition(%) =(Reaction time of the treated group - Reaction time of the control group)/(Reaction time of the control group)x 100 [formula]
# KTC-ICR mice = assay: acetic acid induced writhing test; type: in vivo; conditions: Mus musculus; oral; 0.9% acetic acid i.p. 60 minutes later; writhings during 10 minutes; mice 20 to 25g; Examples 1 to 32
# Experimental: The KTC-ICR mice derived from Charles River Breeding Laboratory in the United States and provided by Experimental Animal Laboratory of Korea Research Institute of Chemical Technology were used as test animals. […] They were tested after having been adjusted to the testing environment for a week. Food and water were given freely; and illumination was maintained on a 12-hour cycle.
# Experiments were performed in two ways: that is, the acetic acid induced writhing test and the phenyl-1,4-benzoquinone(PBQ) induced writhing test.
# Solutions for the acetic acid induced writhing test were prepared by dissolving one of the end products prepared in Examples […] in a saline solution containing 1% by weight of Tween 80 to have a concentration of 5mg/mℓ and diluting it serially with the saline solution. The test solutions were administered orally in a dose of 0.3mℓ per 30g of body weight, using the 5 ICR mice for each test. 60 minutes later, 0.9% acetic acid solution was administered intraperitoneally in a dose of 0.1mℓ per 30g of body weight. 3 minutes thereafter, the number of writhings generated during a period of 10 minutes due to the administration of acetic acid was measured. For comparison purpose, initially, saline solution alone was administered orally to the control group. 60 minutes thereafter, 0.9% acetic acid solution was administered intraperitoneally to the control group.
# The number of writhings suffered by the test group was compared with that of the control group; and the analgesic effect was measured in terms of the percentage of inhibition of writhing(I. W.). I. W. (%) =(A - B)/(A)x 100 [formula] A : the number of writhings suffered by the control group, B : the number of writhings suffered by the test group.
# These ED50 values for the test compounds are shown in the last column of Table 1.
SMILES,ED50 (KTC-ICR mice) [mg/kg],further results
"COc1cc(CNC(=O)CCCC/C=C/C(C)C)ccc1O [Capsaicin, trans-8-methyl-N-vanillyl-6-nonenamide, reference compound]",,"Inhibition(%) (mice; mouse, in vivo, 25 mg/kg): 90%"
COc1cc(CC(=O)NCCCc2ccc(C)c(C)c2)ccc1OCCN [Example 1-l-tartarate],,"Inhibition(%) (mice; p. o., dose 1.25 mg/Kg): 50%; Inhibition(%) (mice; p. o., dose 2.5 mg/Kg): 90%"
Cc1ccc(CCCNC(=O)Cc2ccc(OCCN)cc2)cc1C [Example 2],3.98,
Cc1ccc(CCCNC(=O)Cc2ccc(OCCN)c(F)c2)cc1C [Example 3],2.95,
Cc1ccc(CCCNC(=O)Cc2ccc(OCCN)c(Cl)c2)cc1C [Example 4],4.78,
Cc1cccc(CCCNC(=O)Cc2ccc(OCCN)cc2)c1 [Example 6],26.3,
Cc1cccc(CCCNC(=O)Cc2ccc(OCCN)c(F)c2)c1 [Example 7],2.3,
Cc1cccc(CCCNC(=O)Cc2ccc(OCCN)c(Cl)c2)c1 [Example 8],42.6,
COc1cc(CC(=O)NCCCc2ccc(C)cc2)ccc1OCCN [Example 9],1.73,
Cc1ccc(CCCNC(=O)Cc2ccc(OCCN)cc2)cc1 [Example 10],7.9,
Cc1ccc(CCCNC(=O)Cc2ccc(OCCN)c(Cl)c2)cc1 [Example 12],4.7,
COc1cc(CC(=O)NCCCc2cc(C)cc(C)c2)ccc1OCCN [Example 13],4.6,
Cc1cc(C)cc(CCCNC(=O)Cc2ccc(OCCN)cc2)c1 [Example 14],3.16,
Cc1cc(C)cc(CCCNC(=O)Cc2ccc(OCCN)c(Cl)c2)c1 [Example 16],123,
COc1cc(CC(=O)NCCc2cc(C)cc(C)c2)ccc1OCCN [Example 17],0.77,
"COc1cc(CC(=O)NCCCc2ccc(Cl)cc2)ccc1OCCN [Example 18, N-{3-(4-chlorophenyl)propyl}-4-(2-aminoethoxy)-3-methoxyphenylacetamide]",0.4,
